Test results taken from ChEMBL document CHEMBL3045860, “The effect of sodium bicarbonate alone or in combination with a reduced dose of tebuconazole on the control of apple scab” (Crop Prot, 2006).

Columns and labels:
Type in all cases: organism-based
Conditions in all cases: in vivo
Malus domestica [1] = test: Phytotoxicity in Malus x domestica (apple) assessed as length of harvested fruit at 0.025% […] (reference value: 63.3 mm)
Malus domestica [2] = test: Phytotoxicity in Malus x domestica (apple) assessed as mass of harvested fruit at 0.025% […] (reference value: 181 g)
Malus domestica [3] = test: Phytotoxicity in Malus x domestica (apple) assessed as total soluble solid of harvested fruit at 0.025% by refractometric analysis (reference value: 14%)
Malus domestica [4] = test: Phytotoxicity in Malus x domestica (apple) assessed as width of harvested fruit at 0.025% […] (reference value: 76 mm)

CC(C)(C)C(O)(CCc1ccc(Cl)cc1)Cn1cncn1 (centres undefined) [TEBUCONAZOLE]
Activity (Malus domestica [1]): 68 mm | Activity (Malus domestica [2]): 229 g | Activity (Malus domestica [3]): 14.1% | Activity (Malus domestica [4]): 80.3 mm
